Results as given in patent US8663620B2, “Murgantiol as a stink bug synergistic attractant for use outdoors” (Sterling International Inc., priority 2011, dated 2014).
Entries after “also recorded” stand apart in the source; their conditions may differ. Where two headings read alike, the source gives them in different places.

How the values were obtained:
BMSB = conditions: cited from earlier work
A. hilare = conditions: Aldrich et al. 2007; Khrimian 2005; cited from earlier work
[1] = test system: brown marmorated stink bug (BMSB); experiment: Field trapping Experiment 1 (Example 1): doses of racemic murgantiol vs standard attractants in Rescue! Stink Bug Traps; format: in vivo, Halyomorpha halys; conditions: for attraction of BMSB adults (mean numbers captured in baited traps): Pittsburgh, Pa., 14 days in early September, vs blank control, Duncan's test α=0.05; for attraction of BMSB adults (mean numbers captured in baited traps) / dose-response of trap catches: FIG. 2; for dose-response of trap catches: racemic murgantiol 10, 20, 40, 80 mg
Procedure: (§1) Two field trapping experiments were carried out from early to late September in home gardens/yards in Pittsburgh, Pa. In order to test the potential activity of the Harlequin bug pheromone, murgantiol, as a BMSB outdoor attractant or outdoor synergistic attractant to other known stink bug attractants, commercially available Rescue!® Stink Bug Traps (described in U.S. Pat. No. D645,534; U.S. Pat. No. D645,535; and U.S. patent application Ser. No. 13/331,394, filed Dec. 20, 2011) were used. Traps baited with different tested compounds or combinations were set up in lines, 1-1.5 m above the ground on either tree branches or fences ca. 3-5 m apart between each trap within a set, and at least 50 m between sets. For each trapping experiment, five sets of traps (i.e., five physical replicates of each treatment) were deployed with their initial trap positions within each set being randomized. To minimize positional effects and obtain more replications, stink bug collections and trap re-randomizations were carried out when ≧20 stink bugs were caught in the best traps. Each replicate lasted one to several days depending on stink bug activity. Captured stink bugs were removed from the traps and kept in plastic (polyethylene) zip-bags before returning to the laboratory for recording of the species, gender, and development status (nymphs, adult males/females), and catch. Murgantiol and the known stink bug attractants were released from dispensers [for example, 4 mil polyethylene bags (2.3×5.5 cm) or dispensers described in U.S. patent application Ser. No. 13/206,244, filed Aug. 9, 2011, incorporated herein by reference in its entirety]. Experiment 1 (Example 1) tested different doses of racemic murgantiol (MGT) in comparison with the known standard stink bug attractants [M246DT/M24DD], and the blank control. Trap catch data were converted to proportion (P) of total captured bugs within each replicate. The data were then transformed by arcsin (P)^1/2 to meet the assumptions of normality and homogeneity of variances for ANOVA (analysis of variance). Means were compared by ANOVA followed by the Duncan's multiple range test at α=0.05.

[2] = test system: brown marmorated stink bug (BMSB); experiment: Field trapping Experiment 2 (Example 2): attractant formulations with and without racemic murgantiol in Rescue! Stink Bug Traps; format: in vivo, Halyomorpha halys; conditions: outdoors, September; FIG. 3
Procedure: as §1, with “Murgantiol and the known stink bug attractants were released from dispensers [for example, 4 mil polyethylene bags (2.3×5.5 cm) or dispensers described in U.S. patent application Ser. No. 13/206,244, filed Aug. 9, 2011, incorporated herein by reference in its entirety]. Experiment 1 (Example 1) tested different doses of racemic murgantiol (MGT) in comparison with the known standard stink bug attractants [M246DT/M24DD], and the blank control. Trap catch data were converted to proportion (P) of total captured bugs within each replicate. The data were then transformed by arcsin (P)^1/2 to meet the assumptions of normality and homogeneity of variances for ANOVA (analysis of variance). Means were compared by ANOVA followed by the Duncan's multiple range test at α=0.05.” left out

Euschistus spp. [3] = experiment: Outdoor trapping with Rescue! Stink Bug Traps, synergistic attraction; format: in vivo; conditions: outdoors
Harlequin bugs = conditions: insect-produced and synthetic murgantiol; laboratory; cited from earlier work
BMSB adults = conditions: both sexes of adults, overwintering and transition periods; cited from earlier work
Euschistus spp. [4] = conditions: seven Euschistus spp.; Aldrich et al. 1991; cited from earlier work

CCC\C=C/C=C/C=C/C(=O)OC [M246DT, methyl (2E,4E,6Z)-decatrienoate]
field attraction of BMSB (BMSB; adults (males and females) and nymphs, Aldrich et al. 2007, Khrimian 2005): field attractant for both adults (males and females) and nymphs
attraction of BMSB (BMSB; late spring and early summer, dispersal (overwintered) adults): only weakly active
attraction of BMSB (BMSB; mid-summer and early fall): strongly attractive to both nymphs and adults
field attraction of A. hilare (A. hilare): field attractant

CC(CCC1OC1(C)C)C1C=CC(C)(O)CC1 (racemic) [murgantiol, 4-[3-(3,3-dimethyloxiran-2-yl)-1-methylpropyl]-1-methylcyclohex-2-en-1-ol]
attraction of BMSB adults (mean numbers captured in baited traps) ([1]; outdoors): active as an outdoor attractant; also recorded: comparable, if not more effective in attracting insects; also recorded: outdoor attractant for BMSBs in any dose amount
attraction of BMSB adults (mean numbers captured in baited traps) ([1]; outdoors, listed as MGT-A): strong attraction to BMSBs at levels similar or even higher than the known standard stink bug attractants
attraction of BMSB adults (mean numbers captured in baited traps) ([1]; outdoors, listed as MGT-B): strong attraction to BMSBs at levels similar or even higher than the known standard stink bug attractants
attraction of BMSB adults (mean numbers captured in baited traps) ([1]; outdoors, listed as MGT-C): strong attraction to BMSBs at levels similar or even higher than the known standard stink bug attractants
attraction of BMSB adults (mean numbers captured in baited traps) ([1]; outdoors, listed as MGT-D): strong attraction to BMSBs at levels similar or even higher than the known standard stink bug attractants
sexes and stages attracted and captured ([1]; outdoors, September, nymphs only 5% of total catches): Both sexes of adults (ca. 1:1) and nymphs were attracted and captured
dose-response of trap catches [1]: no significant dose-response effects
dose-response of trap catches ([1]; listed as MGT-A): as effective as the highest dose
effect of adding murgantiol to M246DT/M24DD attractants on BMSB trap catches (synergism) [2]: synergistically attract; also recorded: significant increases in attraction; also recorded: strong synergistic effects
synergistic attraction together with known stink bug attractants such as M246DT and M24DD (Euschistus spp. [3]): synergistically attract
attraction of Harlequin bugs (Harlequin bugs): attracted sexually mature Harlequin bugs of both sexes
indoor attraction of BMSB (BMSB adults): indoor attractant

CCCCC/C=C\C=C\C(=O)OC [M24DD, methyl (2E,4Z)-decadienoate]
field attraction of Euschistus spp. (Euschistus spp. [4]): aggregation pheromone compound or field attractant
